Laboratory results reported in patent US20250101063A1, “POLYPEPTIDE COMPOUND AND USE THEREOF IN TREATMENT OF ENTERITIS” (Sichuan Gooddoctor Panxi Pharmaceutical Co., Ltd., priority 2022, published 2025).
“Also recorded” adds a separate entry of the source.

Tests used:
[1] = system: TNBS-induced model of acute inflammatory bowel disease (UC) in SD rat; assay: TNBS-induced model of acute inflammatory bowel disease (UC) in SD rat; type: in vivo
Excerpt: In this experiment, a rat model of ulcerative colitis was established by administering trinitrobenzene sulfonic acid (TNBS) to laboratory animal male SD rats for a single enema intervention. Acute colitis in rats induced by trinitrobenzene sulfonic acid (TNBS) is an immune response induced by cytokines secreted by Th1 type cells. […] This model is simple to establish and has good reproducibility. It is an experimental animal model widely used in evaluating drugs for the treatment of inflammatory bowel disease. […] During the experimental treatment period (D1-D14), the body weight and general clinical observation indicators (including but not limited to food intake, water intake, activity level and defecation, etc.) of the animals in each experimental group were dynamically collected. At the same time, based on the relevant scoring standards for the disease activity index of ulcerative colitis, the reactivity such as the weight loss degree, stool morphology and trait, and bloody stool of the animals in each experimental group after TNBS induction were scored, and the disease activity index (DAI) of ulcerative colitis was calculated, once a day for 14 consecutive days. At the end point of the experiment, colon tissues of animals in each experimental group were collected, and the length and weight of the colon were measured and then the non-autopsy images were collected. Then the colon was cut open along the intestinal wall longitudinally and autopsy images were collected. Based on the “Criteria for Scoring Gross Morphological Manifestations of the Colon”, the gross damage with respect to colon adhesions, colon ulcers and inflammation of animals in each experimental group was observed and scored. Ulcer images were collected under a stereomicroscope and the area of colon ulcer foci was calculated, followed by routine fixation.

[2] = system: zebrafish model of intestinal mucosal injury; assay: Efficacy in relieving colitis: intestinal lumen area in TNBS-treated zebrafish; type: in vivo; details: for Intestinal lumen area (pixels, mean ± SE): 2 days after TNBS, n = 10
Procedure, shortened: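 TNBS in water for 2 days at 28 °C in 3 dpf wild-type AB zebrafish, then test polypeptide in water for 2 days at 28 °C at 250, 500 or 1000 μg/mL; later rounds used 1000 μg/mL. Prednisone control at 15.0 μg/mL. Intestinal lumen area imaged in 10 fish/group, mean±SE.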

[3] = D 0-D 14, compound 12: 0.8 mg/kg, mesalazine: 30.0 mg/kg, enema once a day 14 days, mean ± SD
[4] = D 14, compound 12: 0.8 mg/kg, mesalazine: 30.0 mg/kg, enema once a day 14 days, mean ± SD
[5] = experimental endpoint, compound 12: 0.8 mg/kg, mesalazine: 30.0 mg/kg, enema once a day 14 days, mean ± SD
[6] = set treatment regimen, enema once a day 14 days, vs model control group
[7] = set treatment regimen, experimental endpoint, vs model control group

Pro-Val-Pro-Gln (PVPQ; printed: Pro-Val-Pro-Gln) [Compound 12]
Body weight, Grouping day (D 0, g) ([1]; D 0, before treatment, compound 12: 0.8 mg/kg, mesalazine: 30.0 mg/kg, enema once a day, mean ± SD): 276.36 ± 7.47 g
DAI score AUC(0-14 d) (D 0-D 14) [1, 3]: 46.40 ± 3.68
Weight change range (D 0-D 14, %) [1, 3]: −1.52 ± 12.20%
DAI score, Experimental day 1 (D 1, point) ([1]; D 1, compound 12: 0.8 mg/kg, mesalazine: 30.0 mg/kg, enema once a day, mean ± SD): 4.1 ± 0.6 point
DAI score, Experimental day 3 (D 3, point) ([1]; D 3, compound 12: 0.8 mg/kg, mesalazine: 30.0 mg/kg, enema once a day, mean ± SD): 4.9 ± 1.0 point
Body weight, Experimental day 5 (D 5, g) ([1]; D 5, compound 12: 0.8 mg/kg, mesalazine: 30.0 mg/kg, enema once a day, mean ± SD): 244.90 ± 21.75 g
Body weight, Experimental endpoint (D 14, g) [1, 4]: 272.00 ± 33.21 g
DAI score, Experimental endpoint (D 14, point) [1, 4]: 1.4 ± 1.8 point
Colon length (cm) [1, 5]: 13.74 ± 1.97 cm
Colon ulcer and inflammation score (point) [1, 5]: 2.30 ± 0.82 point
Colon ulcer area (cm^2) [1, 5]: 3.79 ± 1.63^# cm^2
Colon weight [1, 5]: 2.10 ± 0.19 g
Colon weight/length ratio (100* g/cm) [1, 5]: 15.68 ± 3.14# 100* g/cm
Colonic adhesion score (point) [1, 5]: 1.20 ± 0.63 point
Overall therapeutic effect in the rat model of ulcerative colitis (in words) ([1]; set treatment regimen): significant therapeutic effects
Effect on disease progression of ulcerative colitis / DAI scores (in words) [1, 6]: significant improvement effect on the disease progression of ulcerative colitis
Effect on weight gain inhibition / weight loss response of model animals (in words) [1, 6]: no obvious improved therapeutic effect; also recorded: did not show a significant weight improvement effect
Effect on colon atrophy process / colon weight/length ratio (in words) [1, 7]: colon weight/length ratio was significantly decreased
Effect on gross colon injury status (colonic adhesion, ulcer and inflammation) and colon ulcer area (in words) [1, 7]: obvious therapeutic effects; also recorded: significant therapeutic effects on the gross damage manifestation of the colon
Intestinal lumen area (pixels, mean ± SE) ([2]; 250 μg/mL in water): 48857 ± 5649 pixels
Intestinal lumen area (pixels, mean ± SE) ([2]; 500 μg/mL in water): 43802 ± 3228 pixels
Intestinal lumen area (pixels, mean ± SE) ([2]; 1000 μg/mL in water): 26727 ± 2106 pixels
Activity in relieving intestinal lumen dilatation ([2]; 1000 μg/mL, significance vs model control group of the same batch): ** (** p < 0.01)
Intestinal lumen area compared with the model control group (in words) ([2]; 250, 500, 1000 μg/mL, Table 4): significant statistical differences compared with the model control group
